Converted amounts (≈) assume the structure as drawn.
Tests used:
Experiment in all cases: In vitro determination of minimum inhibitory concentration (MIC), serial dilution
Format in all cases: cell-based
[1] = system: Trichophyton mentagrophytes; settings: pH 6.0, 22° C., 14 days; for MIC: 336 h, pH 6, Trichophyton mentagrophytes
Experimental: (§1) The antimycotic activities of the compounds were measured by in vitro determination of the minimum inhibitory concentration (MIC) for yeasts, molds and dermatophytes.
(§2) 6 dermatophytes, 2 yeasts and 4 molds were used for testing with fungi, as follows:
(§3) The minimum inhibitory concentration (MIC) was determined in serial dilution tests in test tubes. The volume of the liquid nutrient medium in each test tube was 4.5 ml.
(§4) The substances were dissolved in DMSO and diluted with sterile distilled water to 10 concentrations (100, 50, 25, 12.5, 6.25, 3.12, 1.56, 0.78, 0.39 and 0.19 μg/ml). 0.5 ml of each of these dilution steps was added to liquid nutrient medium. Thus, a constant concentration of solvent in all the nutrient media was ensured, irrespective of the active compound concentration.
(§5) A comparison solution which contained only the solvent in appropriate concentration was included when carrying out each of the tests.
(§6) The individual strains were maintained on Sabouraud/beerwort agar slants and, before they were used in a test, they underwent a passage on a modified Sabouraud liquid nutrient medium. The strains were then harvested, washed and converted into a suspension of McFaerland 3 in the case of yeasts and molds and of McFaerland 4-5 in the case of dermatophytes.
(§7) The amount of material inoculated (inoculum) was 100 μl/test tube (inoculated densities: yeasts about 10^3 /ml, molds about 10^4 /ml, dermatophytes about 10^4 /ml). The pH of the liquid nutrient medium was 6.0. After inoculation had taken place the fungi were incubated at 22° C. for 14 days.
(§8) The MIC was then determined. The concentration step at which growth was no longer visible on macroscopic inspection was used for the determination of the MIC. The comparison substance used was 1-(2-(2,4-dichlorophenyl)-2-(2,4-dichlorophenylmethoxy)ethyl)-1H-imidazole(compound A).

Candida albicans = settings: 336 h, pH 6, Candida albicans, pH 6.0, 22° C., 14 days, read-out: MIC C.alb
Experimental: as §1, §2, §3, §4, §5, §6, §7, §8

Mucor mucedo plus = settings: pH 6.0, 22° C., 14 days; for MIC: Mucor mucedo, 336 h, pH 6, Mucor mucedo plus
Experimental: as §1, §2, §3, §4, §5, §6, §7, §8

Candida tropicalis = settings: 336 h, pH 6, Candida tropicalis, pH 6.0, 22° C., 14 days, read-out: MIC C.trop
Experimental: as §1, §2, §3, §4, §5, §6, §7, §8

Microsporum canis = settings: 336 h, pH 6, Microsporum canis, pH 6.0, 22° C., 14 days
Experimental: as §1, §2, §3, §4, §5, §6, §7, §8

Trichophyton rubrum = settings: pH 6.0, 22° C., 14 days; for MIC: 336 h, pH 6, Trichophyton rubrum
Experimental: as §1, §2, §3, §4, §5, §6, §7, §8

Microsporum gypseum = settings: Nannizzia gypsea, 336 h, pH 6, Microsporum gypseum; pH 6.0, 22° C., 14 days; read-out: MIC Mi.gyp
Experimental: as §1, §2, §3, §4, §5, §6, §7, §8

Mucor mucedo minus = settings: pH 6.0, 22° C., 14 days; for MIC: Mucor mucedo, 336 h, pH 6, Mucor mucedo minus
Experimental: as §1, §2, §3, §4, §5, §6, §7, §8

Epidermophyton floccosum = settings: pH 6.0, 22° C., 14 days; for MIC: 336 h, pH 6, Epidermophyton floccosum
Experimental: as §1, §2, §3, §4, §5, §6, §7, §8

Trichophyton verrucosum = settings: pH 6.0, 22° C., 14 days; for MIC: 336 h, pH 6, Trichophyton verrucosum
Experimental: as §1, §2, §3, §4, §5, §6, §7, §8

Aspergillus fumigatus = settings: 20160 min, pH 6
Experimental: as §1, §2, §3, §4, §5, §6, §7, §8

Absidia ramosa = settings: pH 6.0, 22° C., 14 days; for MIC: Lichtheimia ramosa, 336 h, pH 6, Absidia ramosa
Experimental: as §1, §2, §3, §4, §5, §6, §7, §8

MIC [1] | MIC (Candida albicans) | MIC (Mucor mucedo plus) | MIC (Candida tropicalis) | MIC (Microsporum canis) | MIC (Trichophyton rubrum) | MIC (Microsporum gypseum) | MIC (Mucor mucedo minus) | MIC (Epidermophyton floccosum) | MIC (Trichophyton verrucosum) | MIC Asp.fu. (Aspergillus fumigatus) | MIC (Absidia ramosa) | MIC Tri.me. [1] | MIC Mu.mu+ (Mucor mucedo plus; Mucor mucedo plus) | MIC Tri.ru. (Trichophyton rubrum) | MIC Mu.mu- (Mucor mucedo minus; Mucor mucedo minus) | MIC Ep.flo (Epidermophyton floccosum) | MIC Tri.ve. (Trichophyton verrucosum) | MIC Abs.ra. (Absidia ramosa; Absidia ramosa) | Compound
25 µg/mL (≈ 56.8 µM) | 50 µg/mL (≈ 114 µM) | 6.25 µg/mL | 25 µg/mL (≈ 56.8 µM) | 12.5 µg/mL (≈ 28.4 µM) | 50 µg/mL (≈ 114 µM) | 25 µg/mL (≈ 56.8 µM) | 12.5 µg/mL (≈ 28.4 µM) | 25 µg/mL (≈ 56.8 µM) | 6.25 µg/mL (≈ 14.2 µM) | 100 µg/mL (≈ 227 µM) | 100 µg/mL (≈ 227 µM) |  |  |  |  |  |  |  | Cc1cc(Cl)ccc1OCCCNC(Cn1cncn1)c1ccc(Cl)cc1Cl (stereo not drawn) [Compound 68]
25 µg/mL (≈ 54.3 µM) | 3.12 µg/mL (≈ 6.78 µM) | 6.25 µg/mL | 3.12 µg/mL (≈ 6.78 µM) | 25 µg/mL (≈ 54.3 µM) | 3.12 µg/mL (≈ 6.78 µM) | 6.25 µg/mL (≈ 13.6 µM) | 6.25 µg/mL (≈ 13.6 µM) | 6.25 µg/mL (≈ 13.6 µM) | 1.56 µg/mL (≈ 3.39 µM) | 3,12 μg/ml | 100 µg/mL (≈ 217 µM) |  |  |  |  |  |  |  | Clc1ccc(C(Cn2cncn2)NCCCOc2c(Cl)cccc2Cl)c(Cl)c1 (stereo not drawn) [Compound 72]
25 µg/mL (≈ 61.5 µM) | 6.25 µg/mL (≈ 15.4 µM) | 6.25 µg/mL | 3.12 µg/mL (≈ 7.68 µM) | 3.12 µg/mL (≈ 7.68 µM) | 1.56 µg/mL (≈ 3.84 µM) | 3.12 µg/mL (≈ 7.68 µM) | 3.12 µg/mL (≈ 7.68 µM) | 3.12 µg/mL (≈ 7.68 µM) | 1.56 µg/mL (≈ 3.84 µM) | 3,12 μg/ml | 12.5 µg/mL (≈ 30.8 µM) |  |  |  |  |  |  |  | Clc1ccc(C(Cn2ccnc2)NCCCSc2ccccc2)c(Cl)c1 (stereo not drawn) [Compound 90]
0.78 µg/mL (≈ 1.86 µM) | 12.5 µg/mL (≈ 29.7 µM) | 0.78 µg/mL | 12.5 µg/mL (≈ 29.7 µM) | 3.12 µg/mL (≈ 7.42 µM) | 0.78 µg/mL (≈ 1.86 µM) | 0.78 µg/mL (≈ 1.86 µM) | 3.12 µg/mL (≈ 7.42 µM) | 0.78 µg/mL (≈ 1.86 µM) | 0.78 µg/mL (≈ 1.86 µM) | 0,78 μg/ml | 6.25 µg/mL (≈ 14.9 µM) |  |  |  |  |  |  |  | Cc1ccc(SCCCNC(Cn2ccnc2)c2ccc(Cl)cc2Cl)cc1 (stereo not drawn) [Compound 92]
3.12 µg/mL (≈ 7.06 µM) | 12.5 µg/mL (≈ 28.3 µM) | 3.12 µg/mL | 12.5 µg/mL (≈ 28.3 µM) | 6.25 µg/mL (≈ 14.1 µM) | 1.56 µg/mL (≈ 3.53 µM) | 3.12 µg/mL (≈ 7.06 µM) | 3.12 µg/mL (≈ 7.06 µM) | 0.78 µg/mL (≈ 1.77 µM) | 3.12 µg/mL (≈ 7.06 µM) | 12,5 μg/ml | 100 µg/mL (≈ 226 µM) |  |  |  |  |  |  |  | Clc1ccc(SCCCNC(Cn2cncn2)c2ccc(Cl)cc2Cl)cc1 (stereo not drawn) [Compound 95]
6.25 µg/mL (≈ 15.3 µM) | 6.25 µg/mL (≈ 15.3 µM) | 12.5 µg/mL | 12.5 µg/mL (≈ 30.7 µM) | 12.5 µg/mL (≈ 30.7 µM) | 3.12 µg/mL (≈ 7.66 µM) | 3.12 µg/mL (≈ 7.66 µM) | 6.25 µg/mL (≈ 15.3 µM) | 6.25 µg/mL (≈ 15.3 µM) | 3.12 µg/mL (≈ 7.66 µM) | 100 µg/mL (≈ 245 µM) | 100 µg/mL (≈ 245 µM) |  |  |  |  |  |  |  | Clc1ccc(SCCCNC(Cn2cncn2)c2ccc(Cl)cc2)cc1 (stereo not drawn) [Compound 99]
6.25 µg/mL (≈ 13.9 µM) | 3.12 µg/mL (≈ 6.92 µM) | 12.5 µg/mL | 12.5 µg/mL (≈ 27.7 µM) | 6.25 µg/mL (≈ 13.9 µM) | 3.12 µg/mL (≈ 6.92 µM) | 6.25 µg/mL (≈ 13.9 µM) | 25 µg/mL (≈ 55.5 µM) | 6.25 µg/mL (≈ 13.9 µM) | 6.25 µg/mL (≈ 13.9 µM) | 6,25 μg/ml | 6.25 µg/mL (≈ 13.9 µM) |  |  |  |  |  |  |  | Clc1ccc(SCCCNC(Cn2ccnc2)c2ccc(Br)cc2)cc1 (stereo not drawn) [Compound 100]
25 µg/mL (≈ 51.4 µM) | 25 µg/mL (≈ 51.4 µM) | 12.5 µg/mL | 12.5 µg/mL (≈ 25.7 µM) | 100 µg/mL (≈ 206 µM) | 6.25 µg/mL (≈ 12.9 µM) | 6.25 µg/mL (≈ 12.9 µM) | 50 µg/mL (≈ 103 µM) | 12.5 µg/mL (≈ 25.7 µM) | 12.5 µg/mL (≈ 25.7 µM) | 100 µg/mL (≈ 206 µM) | 100 µg/mL (≈ 206 µM) |  |  |  |  |  |  |  | Clc1ccc(C(Cn2cncn2)NCCCSc2ccc(Br)cc2)c(Cl)c1 (stereo not drawn) [Compound 104]
 | 3.12 µg/mL (≈ 6.43 µM) |  | 3.12 µg/mL (≈ 6.43 µM) | 0.78 µg/mL (≈ 1.61 µM) |  | 0.39 µg/mL (≈ 0.804 µM) |  |  |  | 0,39 μg/ml |  | 0,10 μg/ml | 3,12 μg/ml | 0,10 μg/ml | 3,12 μg/ml | 0,10 μg/ml | 0,10 μg/ml | 12,5 μg/ml | Clc1ccc(C(Cn2ccnc2)NCCCSc2ccc(Br)cc2)c(Cl)c1 (stereo not drawn) [Compound 105]
3.12 µg/mL (≈ 6.56 µM) | 6.25 µg/mL (≈ 13.2 µM) | 6.25 µg/mL | 6.25 µg/mL (≈ 13.2 µM) | 12.5 µg/mL (≈ 26.3 µM) | 3.12 µg/mL (≈ 6.56 µM) | 3.12 µg/mL (≈ 6.56 µM) | 12.5 µg/mL (≈ 26.3 µM) | 3.12 µg/mL (≈ 6.56 µM) | 3.12 µg/mL (≈ 6.56 µM) | 12,5 μg/ml | 12.5 µg/mL (≈ 26.3 µM) |  |  |  |  |  |  |  | Clc1ccc(C(Cn2ccnc2)NCCCSc2c(Cl)cccc2Cl)c(Cl)c1 (stereo not drawn) [Compound 112]
3.12 µg/mL (≈ 6.84 µM) | 3.12 µg/mL (≈ 6.84 µM) | 6.25 µg/mL | 6.25 µg/mL (≈ 13.7 µM) | 0.78 µg/mL (≈ 1.71 µM) | 1.56 µg/mL (≈ 3.42 µM) | 3.12 µg/mL (≈ 6.84 µM) | 3.12 µg/mL (≈ 6.84 µM) | 3.12 µg/mL (≈ 6.84 µM) | 1.56 µg/mL (≈ 3.42 µM) | 0,78 μg/ml | 6.25 µg/mL (≈ 13.7 µM) |  |  |  |  |  |  |  | Clc1ccc(C(Cn2ccnc2)NCCCSc2ccc3ccccc3c2)c(Cl)c1 (stereo not drawn) [Compound 114]
50 µg/mL (≈ 114 µM) | 25 µg/mL (≈ 56.8 µM) | 12.5 µg/mL | 12.5 µg/mL (≈ 28.4 µM) | 25 µg/mL (≈ 56.8 µM) | 6.25 µg/mL (≈ 14.2 µM) | 3.12 µg/mL (≈ 7.09 µM) | 25 µg/mL (≈ 56.8 µM) | 12.5 µg/mL (≈ 28.4 µM) | 3.12 µg/mL (≈ 7.09 µM) | 25,0 μg/ml | 100 µg/mL (≈ 227 µM) |  |  |  |  |  |  |  | Clc1ccc(OCCCCNC(Cn2cncn2)c2ccc(Cl)cc2Cl)cc1 (stereo not drawn) [Compound 126]
0.78 µg/mL (≈ 1.66 µM) | 6.25 µg/mL (≈ 13.3 µM) | 0.78 µg/mL | 3.12 µg/mL (≈ 6.65 µM) | 12.5 µg/mL (≈ 26.7 µM) | 3.12 µg/mL (≈ 6.65 µM) | 3.12 µg/mL (≈ 6.65 µM) | 3.12 µg/mL (≈ 6.65 µM) | 0.78 µg/mL (≈ 1.66 µM) | 6.25 µg/mL (≈ 13.3 µM) | 6,25 μg/ml | 6.25 µg/mL (≈ 13.3 µM) |  |  |  |  |  |  |  | Clc1ccc(SCCCCCNC(Cn2ccnc2)c2ccc(Cl)cc2Cl)cc1 (stereo not drawn) [Compound 132]
3.12 µg/mL (≈ 7.39 µM) | 3.12 µg/mL (≈ 7.39 µM) | 3.12 µg/mL | 12.5 µg/mL (≈ 29.6 µM) | 1.56 µg/mL (≈ 3.7 µM) | 1.56 µg/mL (≈ 3.7 µM) | 1.56 µg/mL (≈ 3.7 µM) | 3.12 µg/mL (≈ 7.39 µM) | 3.12 µg/mL (≈ 7.39 µM) | 1.56 µg/mL (≈ 3.7 µM) | 3,12 μg/ml | 3.12 µg/mL (≈ 7.39 µM) |  |  |  |  |  |  |  | Clc1ccc(SCCCNC(Cn2ccnc2)c2cccc3ccccc23)cc1 (stereo not drawn) [Compound 139]
